The test deals with MV-4-11 cells. Description: Gene expression microarray analysis (Affymetrix PrimeView) and GSEA. The test is classed as cell-based, human. The arrangement: RFU PODN (11730768_x_at) / Fold change /veh PODN (11730768_x_at) / RFU LINC00158 (11744669_a_at) / Fold change /veh LINC00158 (11744669_a_at) / RFU DUSP10 (11751237_a_at) / Fold change /veh DUSP10 (11751237_a_at) / RFU ID3 (11757404_x_at) / Fold change /veh ID3 (11757404_x_at) / RFU PLEKHG5 (11737974_s_at) / Fold change /veh PLEKHG5 (11737974_s_at) / RFU LRRC4B (11730491_at) / Fold change /veh LRRC4B (11730491_at) / RFU GIMAP4 (11747438_a_at) / Fold change /veh GIMAP4 (11747438_a_at) / RFU KRT8 (11758183_x_at) / Fold change /veh KRT8 (11758183_x_at) / RFU CNN1 (11734310_a_at) / Fold change /veh CNN1 (11734310_a_at) / RFU VPS37D (11726825_at) / Fold change /veh VPS37D (11726825_at) / RFU C10orf10 (11716522_x_at) / Fold change /veh C10orf10 (11716522_x_at) / RFU KIR2DL2 /// KIR2DL4 /// KIR2DL5A /// KIR2DL5B /// KIR2DS1 /// KIR2DS2 /// KIR2DS3 /// KIR2DS4 /// KIR3DL3 /// KIR3DL3 /// KIR3DS1 (11738374_at) / Fold change /veh KIR2DL2 /// KIR2DL4 /// KIR2DL5A /// KIR2DL5B /// KIR2DS1 /// KIR2DS2 /// KIR2DS3 /// KIR2DS4 /// KIR3DL3 /// KIR3DL3 /// KIR3DS1 (11738374_at) / RFU C1QL1 (11718748_at) / Fold change /veh C1QL1 (11718748_at) / RFU TMPRSS4 (11747572_a_at) / Fold change /veh TMPRSS4 (11747572_a_at) / RFU HAMP (11756126_x_at) / Fold change /veh HAMP (11756126_x_at) / RFU RNFT2 (11725882_a_at) / Fold change /veh RNFT2 (11725882_a_at) / RFU NR4A2 (11747474_a_at) / Fold change /veh NR4A2 (11747474_a_at) / RFU ABCC12 (11746883_a_at) / Fold change /veh ABCC12 (11746883_a_at) / RFU TMEM136 (11760407_x_at) / Fold change /veh TMEM136 (11760407_x_at) / RFU CLDN22 /// WWC2 (11732394_at) / Fold change /veh CLDN22 /// WWC2 (11732394_at) / RFU HLA-DPB1 (11760878_x_at) / Fold change /veh HLA-DPB1 (11760878_x_at) / RFU SPINT1 (11716480_a_at) / Fold change /veh SPINT1 (11716480_a_at) / RFU GAP43 (11754022_s_at) / Fold change /veh GAP43 (11754022_s_at) / RFU A4GNT (11735810_at) / Fold change /veh A4GNT (11735810_at) / RFU PRB3 (11715151_x_at) / Fold change /veh PRB3 (11715151_x_at) / RFU TUBB4B (11761932_at) / Fold change /veh TUBB4B (11761932_at) / RFU CAPN14 (11732068_a_at) / Fold change /veh CAPN14 (11732068_a_at) / RFU TMCC2 (11721928_a_at) / Fold change /veh TMCC2 (11721928_a_at) / RFU IRGQ (11745062_a_at) / Fold change /veh IRGQ (11745062_a_at) / RFU FAM174B (11720279_a_at) / Fold change /veh FAM174B (11720279_a_at) / RFU TMPRSS4 (11748680_a_at) / Fold change /veh TMPRSS4 (11748680_a_at) / RFU FAM212B (11763350_a_at) / Fold change /veh FAM212B (11763350_a_at) / RFU PLEKHG5 (11743358_a_at) / Fold change /veh PLEKHG5 (11743358_a_at) / RFU ZSCAN30 (11745921_a_at) / Fold change /veh ZSCAN30 (11745921_a_at) / RFU CMKLR1 (11741424_a_at) / Fold change /veh CMKLR1 (11741424_a_at) / RFU LOC101060620 /// MAPK8IP1 (11723275_at) / Fold change /veh LOC101060620 /// MAPK8IP1 (11723275_at) / RFU SPTSSB (11747773_x_at) / Fold change /veh SPTSSB (11747773_x_at) / RFU PRSS12 (11739890_at) / Fold change /veh PRSS12 (11739890_at) / RFU BIN1 (11741810_x_at) / Fold change /veh BIN1 (11741810_x_at) / RFU WNT11 (11732464_a_at) / Fold change /veh WNT11 (11732464_a_at) / RFU C10orf10 (11716521_a_at) / Fold change /veh C10orf10 (11716521_a_at) / RFU C5orf56 (11738089_at) / Fold change /veh C5orf56 (11738089_at) / RFU CYB561 (11721691_x_at) / Fold change /veh CYB561 (11721691_x_at) / RFU ANKRD19P (11752326_a_at) / Fold change /veh ANKRD19P (11752326_a_at) / RFU OR2T12 /// OR2T33 /// OR2T8 (11738714_s_at) / Fold change /veh OR2T12 /// OR2T33 /// OR2T8 (11738714_s_at) / RFU VCAN (11748164_a_at) / Fold change /veh VCAN (11748164_a_at) / RFU JSRP1 (11732532_at) / Fold change /veh JSRP1 (11732532_at) / RFU KRTAP10-11 (11738290_x_at) / Fold change /veh KRTAP10-11 (11738290_x_at) / RFU MYO3A (11730013_a_at) / Fold change /veh MYO3A (11730013_a_at) / RFU EBF3 (11725865_a_at) / Fold change /veh EBF3 (11725865_a_at) / RFU CAMK2N1 (11719241_x_at) / Fold change /veh CAMK2N1 (11719241_x_at) / RFU C5orf56 (11738088_a_at) / Fold change /veh C5orf56 (11738088_a_at) / RFU OLFML3 (11715873_a_at) / Fold change /veh OLFML3 (11715873_a_at) / RFU LOC100653217 /// NTM (11731650_a_at) / Fold change /veh LOC100653217 /// NTM (11731650_a_at) / RFU MAPK11 (11762145_a_at) / Fold change /veh MAPK11 (11762145_a_at) / RFU FIZ1 (11724087_x_at) / Fold change /veh FIZ1 (11724087_x_at) / RFU OASL (11726364_x_at) / Fold change /veh OASL (11726364_x_at) / RFU SOX15 (11748057_x_at) / Fold change /veh SOX15 (11748057_x_at) / RFU CD79A (11719716_a_at) / Fold change /veh CD79A (11719716_a_at) / RFU HIST1H1D (11736915_at) / Fold change /veh HIST1H1D (11736915_at) / RFU CASKIN2 (11723855_a_at) / Fold change /veh CASKIN2 (11723855_a_at) / RFU LOC730098 (11760151_x_at) / Fold change /veh LOC730098 (11760151_x_at) / RFU OR4N2 (11742367_at) / Fold change /veh OR4N2 (11742367_at) / RFU PRRT2 (11749266_a_at) / Fold change /veh PRRT2 (11749266_a_at) / RFU SNX32 (11753110_a_at) / Fold change /veh SNX32 (11753110_a_at) / RFU CDHR5 (11726645_a_at) / Fold change /veh CDHR5 (11726645_a_at) / RFU RCAN1 (11760418_a_at) / Fold change /veh RCAN1 (11760418_a_at) / RFU FAM167A (11723789_a_at) / Fold change /veh FAM167A (11723789_a_at) / RFU FAM26E (11764081_at) / Fold change /veh FAM26E (11764081_at) / RFU ISYNA1 (11749810_s_at) / Fold change /veh ISYNA1 (11749810_s_at) / RFU ACY1 (11761880_at) / Fold change /veh ACY1 (11761880_at) / RFU 11764098_at / Fold change /veh 11764098_at / RFU SAMD14 (11745864_x_at) / Fold change /veh SAMD14 (11745864_x_at) / RFU NPB (11741838_a_at) / Fold change /veh NPB (11741838_a_at) / RFU TMPRSS6 (11731388_a_at) / Fold change /veh TMPRSS6 (11731388_a_at) / RFU KRTAP10-2 (11738614_at) / Fold change /veh KRTAP10-2 (11738614_at) / RFU ARHGAP8 /// PRR5-ARHGAP8 (11727945_x_at) / Fold change /veh ARHGAP8 /// PRR5-ARHGAP8 (11727945_x_at) / RFU KRTAP5-7 /// NADSYN1 (11734609_at) / Fold change /veh KRTAP5-7 /// NADSYN1 (11734609_at) / RFU RASL12 (11751679_a_at) / Fold change /veh RASL12 (11751679_a_at) / RFU CDKN2B (11736163_a_at) / Fold change /veh CDKN2B (11736163_a_at) / RFU PRF1 (11729649_at) / Fold change /veh PRF1 (11729649_at) / RFU, ZNF638 /// ZNF638-IT1 / Fold change vs veh, ZNF638 /// ZNF638-IT1 / RFU, PANK3 / Fold change vs veh, PANK3 / RFU, SH3YL1 / Fold change vs veh, SH3YL1 / RFU, ZEB2 / Fold change vs veh, ZEB2 / RFU, NRIP1 / Fold change vs veh, NRIP1 / RFU, PTTG1IP / Fold change vs veh, PTTG1IP / RFU, CAPN2 / Fold change vs veh, CAPN2 / RFU, MED14 / Fold change vs veh, MED14 / RFU, SNORA58 / Fold change vs veh, SNORA58 / RFU, C1orf63 / Fold change vs veh, C1orf63 / RFU, LRRFIP1 / Fold change vs veh, LRRFIP1 / RFU, NDUFAF7 / Fold change vs veh, NDUFAF7 / RFU, SLC12A2 / Fold change vs veh, SLC12A2 / RFU, IBTK / Fold change vs veh, IBTK / RFU, ESF1 / Fold change vs veh, ESF1 / Fold change vs veh, TMEM50B / RFU, TAOK1 / Fold change vs veh, TAOK1 / RFU, ACBD3 / Fold change vs veh, ACBD3 / RFU, TMA16 / Fold change vs veh, TMA16 / RFU, RWDD3 / Fold change vs veh, RWDD3 / RFU, BCAT1 / Fold change vs veh, BCAT1 / RFU, EDEM3 / Fold change vs veh, EDEM3 / RFU, TMEM33 / Fold change vs veh, TMEM33 / RFU, WDR75 / Fold change vs veh, WDR75 / RFU, AHCTF1 / Fold change vs veh, AHCTF1 / RFU, TFRC / Fold change vs veh, TFRC / RFU, ZDHHC17 / Fold change vs veh, ZDHHC17 / RFU, NOM1 / Fold change vs veh, NOM1 / RFU, ARL8B / Fold change vs veh, ARL8B / RFU, ZBTB11 / Fold change vs veh, ZBTB11 / RFU, TAMM41 / Fold change vs veh, TAMM41 / RFU, KIAA1704 /// LOC100996395 / Fold change vs veh, KIAA1704 /// LOC100996395 / RFU, ING1 / Fold change vs veh, ING1 / RFU, TRMT61B / Fold change vs veh, TRMT61B / RFU, FUBP3 / Fold change vs veh, FUBP3 / RFU, TP53 / Fold change vs veh, TP53 / RFU, TNKS2 / Fold change vs veh, TNKS2 / RFU, ZFP14 / Fold change vs veh, ZFP14 / RFU, ACTR2 / Fold change vs veh, ACTR2 / RFU, PPP3R1 / Fold change vs veh, PPP3R1 / RFU, PIK3R1 / Fold change vs veh, PIK3R1 / RFU, HNRNPA1 / Fold change vs veh, HNRNPA1 / RFU, RNF170 / Fold change vs veh, RNF170 / RFU, ZNF28 / Fold change vs veh, ZNF28 / RFU, RNGTT / Fold change vs veh, RNGTT / RFU, OGT / Fold change vs veh, OGT / RFU, BRD1 / Fold change vs veh, BRD1 / RFU, MARS / Fold change vs veh, MARS / RFU, ZNF655 / Fold change vs veh, ZNF655 / RFU, FAHD1 / Fold change vs veh, FAHD1 / RFU, BDP1 / Fold change vs veh, BDP1 / RFU, LRRCC1 / Fold change vs veh, LRRCC1 / RFU, ARID1A / Fold change vs veh, ARID1A / RFU, ZNF146 / Fold change vs veh, ZNF146 / RFU, ZNF330 / Fold change vs veh, ZNF330 / RFU, GPN3 / Fold change vs veh, GPN3 / RFU, C9orf123 / Fold change vs veh, C9orf123 / RFU, N4BP2L2 / Fold change vs veh, N4BP2L2 / RFU, ARFIP1 / Fold change vs veh, ARFIP1 / RFU, FAM179B / Fold change vs veh, FAM179B / RFU, BCL10 / Fold change vs veh, BCL10 / RFU, UHRF1BP1L / Fold change vs veh, UHRF1BP1L / RFU, BET1 / Fold change vs veh, BET1 / RFU, CNOT2 / Fold change vs veh, CNOT2 / RFU, ZNF268 / Fold change vs veh, ZNF268 / Fold change vs veh, ZNF507 / RFU, DGCR2 / Fold change vs veh, DGCR2 / RFU, WDSUB1 / Fold change vs veh, WDSUB1 / Fold change vs veh, HSP90B1 /// MIR3652 / RFU, ADSS / Fold change vs veh, ADSS / RFU, GK / Fold change vs veh, GK / RFU, ZNF148 / Fold change vs veh, ZNF148 / RFU, TAF9 / Fold change vs veh, TAF9 / RFU, SLC1A5 / Fold change vs veh, SLC1A5 / RFU, SLMO2 / Fold change vs veh, SLMO2 / RFU, ABCC4 / Fold change vs veh, ABCC4 / RFU, LOC101060439 /// RAP1B / Fold change vs veh, LOC101060439 /// RAP1B / RFU, RFX7 / Fold change vs veh, RFX7 / RFU, GTPBP10 / Fold change vs veh, GTPBP10 / RFU, CNEP1R1 / Fold change vs veh, CNEP1R1 / RFU, BIVM-ERCC5 /// ERCC5 / Fold change vs veh, BIVM-ERCC5 /// ERCC5 / RFU, ILF3 / Fold change vs veh, ILF3 / RFU 11762660_at / Fold change /veh 11762660_at / RFU VCAN (11757783_s_at) / Fold change /veh VCAN (11757783_s_at) / RFU DDX43 (11728927_at) / Fold change /veh DDX43 (11728927_at) / RFU KRT8 (11758188_x_at) / Fold change /veh KRT8 (11758188_x_at) / RFU NKD1 (11759106_at) / Fold change /veh NKD1 (11759106_at) / RFU SRD5A1 (11742802_a_at) / Fold change /veh SRD5A1 (11742802_a_at) / RFU TPSAB1 /// TPSB2 (11721975_s_at) / Fold change /veh TPSAB1 /// TPSB2 (11721975_s_at) / RFU GSTM3 (11746129_a_at) / Fold change /veh GSTM3 (11746129_a_at) / RFU IL23R (11737362_x_at) / Fold change /veh IL23R (11737362_x_at) / RFU TMEM51 (11727254_a_at) / Fold change /veh TMEM51 (11727254_a_at) / RFU PIWIL2 (11732686_x_at) / Fold change /veh PIWIL2 (11732686_x_at) / RFU ORM1 (11744905_x_at) / Fold change /veh ORM1 (11744905_x_at) / RFU CCDC152 (11743942_at) / Fold change /veh CCDC152 (11743942_at) / RFU ECM1 (11717891_a_at) / Fold change /veh ECM1 (11717891_a_at) / RFU IL23R (11748794_a_at) / Fold change /veh IL23R (11748794_a_at) / RFU TNFAIP8L3 (11732012_x_at) / Fold change /veh TNFAIP8L3 (11732012_x_at) / RFU MBOAT4 (11741988_at) / Fold change /veh MBOAT4 (11741988_at) / RFU 11764193_at / Fold change /veh 11764193_at / RFU TMEM53 (11763286_at) / Fold change /veh TMEM53 (11763286_at) / RFU MAGEB2 (11727129_at) / Fold change /veh MAGEB2 (11727129_at) / RFU TMEM200A (11744735_a_at) / Fold change /veh TMEM200A (11744735_a_at) / RFU CCDC152 (11751479_a_at) / Fold change /veh CCDC152 (11751479_a_at) / RFU FAM211A (11726209_a_at) / Fold change /veh FAM211A (11726209_a_at) / RFU RGS16 (11746705_a_at) / Fold change /veh RGS16 (11746705_a_at) / RFU VCAN (11755009_s_at) / Fold change /veh VCAN (11755009_s_at) / RFU RHOB (11743442_s_at) / Fold change /veh RHOB (11743442_s_at) / RFU RGS16 (11720943_a_at) / Fold change /veh RGS16 (11720943_a_at) / RFU RGS16 (11720944_at) / Fold change /veh RGS16 (11720944_at) / RFU, VPS4B / Fold change vs veh, VPS4B / RFU, CREB1 / Fold change vs veh, CREB1 / RFU, DNAJC13 / Fold change vs veh, DNAJC13 / RFU, GNAQ / Fold change vs veh, GNAQ / RFU, CDK5R1 / Fold change vs veh, CDK5R1 / RFU, ZRANB3 / Fold change vs veh, ZRANB3 / RFU, CUL4A / Fold change vs veh, CUL4A / RFU, CCNY / Fold change vs veh, CCNY / RFU, UFL1 / Fold change vs veh, UFL1 / RFU, COG3 / Fold change vs veh, COG3 / RFU, DIAPH2 / Fold change vs veh, DIAPH2 / RFU, SKA2 / Fold change vs veh, SKA2 / RFU, AFF3 / Fold change vs veh, AFF3 / RFU, LMF1 / Fold change vs veh, LMF1 / RFU, IPO11 / Fold change vs veh, IPO11 / RFU, DFFB / Fold change vs veh, DFFB / RFU, FOXP1 / Fold change vs veh, FOXP1 / RFU, CARD8 / Fold change vs veh, CARD8 / RFU, STRN3 / Fold change vs veh, STRN3 / RFU, ADK / Fold change vs veh, ADK / RFU, RASSF2 / Fold change vs veh, RASSF2 / RFU, WIPF1 / Fold change vs veh, WIPF1 / RFU, LARP1B / Fold change vs veh, LARP1B / RFU, RASA1 / Fold change vs veh, RASA1 / RFU, RB1 / Fold change vs veh, RB1 / RFU, PPFIA1 / Fold change vs veh, PPFIA1 / RFU, MAT2A / Fold change vs veh, MAT2A / RFU, CCT5 / Fold change vs veh, CCT5 / RFU, WDR92 / Fold change vs veh, WDR92 / RFU, CUX1 / Fold change vs veh, CUX1 / RFU, TTC7A / Fold change vs veh, TTC7A / RFU, TMEM135 / Fold change vs veh, TMEM135 / RFU, DEPTOR / Fold change vs veh, DEPTOR / RFU, CPM / Fold change vs veh, CPM / RFU, DNAJB6 / Fold change vs veh, DNAJB6 / RFU, CACNA2D3 / Fold change vs veh, CACNA2D3 / RFU, DTX4 / Fold change vs veh, DTX4 / RFU, TFCP2 / Fold change vs veh, TFCP2 / RFU, GMCL1 /// GMCL1P1 / Fold change vs veh, GMCL1 /// GMCL1P1 / RFU, AEBP2 / Fold change vs veh, AEBP2 / RFU, SNHG1 /// SNORD22 /// SNORD25 /// SNORD26 /// SNORD27 /// SNORD28 /// SNORD29 /// SNORD31 / Fold change vs veh, SNHG1 /// SNORD22 /// SNORD25 /// SNORD26 /// SNORD27 /// SNORD28 /// SNORD29 /// SNORD31 / Fold change (Aza/veh), C12orf56 (ProbeSet 11735607_a_at) / Fold change (ACY-1035/veh), C12orf56 (ProbeSet 11735607_a_at) / Fold change (Aza/veh), FGFR1OP (ProbeSet 11751329_s_at) / Fold change (ACY-1035/veh), FGFR1OP (ProbeSet 11751329_s_at) / Fold change (Aza/veh), VPS36 (ProbeSet 11739960_a_at) / Fold change (ACY-1035/veh), VPS36 (ProbeSet 11739960_a_at) / RFU SYPL1 (11715823_x_at) / Fold change /veh SYPL1 (11715823_x_at) / RFU IGFBP7 (11715501_s_at) / Fold change /veh IGFBP7 (11715501_s_at) / RFU REEP3 (11722064_at) / Fold change /veh REEP3 (11722064_at) / RFU IGLL1 (11728026_x_at) / Fold change /veh IGLL1 (11728026_x_at): dose or concentration left out as unconfirmed. The conditions noted are these: ProbeSet 11739106_a_at; LIST B.

In the case of `Nc1ccc(-c2cccs2)cc1NC(=O)c1ccc2c(c1)cc(C1CC1)n2CCN1CCOCC1` [ACY-1035], the “Fold change vs veh, TMEM33” value worked out at 0.87.

Source of the values: paper PMC5218480 (PLoS ONE, 2017).
